From paper PMC4306533, “Distinct Features of Cap Binding by eIF4E1b Proteins” (Journal of Molecular Biology, 2015)
pIC50, pKd: −log10 of the molar value. Values belong to the compound of their own block, whether it stands above or below them.

Experiments:
eIF4E1a [1] = test system: eIF4E1a; parameters: method as in PMID 15317978; details: cited from earlier work
[2] = test system: rabbit reticulocyte lysate system (RRL); details: cited from earlier work
heIF4E1a = target: T1, heIF4E1a (Homo sapiens, UniProt P06730); parameters: method as in PMID 17369309; details: equilibrium association constant; buffer without glycerol; footnote b; cited from earlier work
T1 construct: made in house; host or cells: E. coli Rosetta2(DE3)
T1 sequence (P06730 whole entry): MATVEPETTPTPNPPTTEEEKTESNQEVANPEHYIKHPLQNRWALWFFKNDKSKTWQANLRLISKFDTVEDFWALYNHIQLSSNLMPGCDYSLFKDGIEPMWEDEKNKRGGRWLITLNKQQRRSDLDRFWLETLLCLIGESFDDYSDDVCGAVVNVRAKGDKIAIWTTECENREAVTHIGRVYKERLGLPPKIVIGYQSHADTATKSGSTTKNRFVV

in vitro translation = test system: in vitro translation; parameters: method as in PMID 10387101; details: Cai et al.; read-out: IC50 (inhibitory potency); cited from earlier work
XeIF4E1bΔN27 = assay: time-synchronized fluorescence titration of cap analogue binding; parameters: species or system Xenopus laevis; details: 10% glycerol
Text: (§1) The time-synchronized fluorescence titration method, widely used to determine the affinity constants of cap–eIF4E complexes [[20,22–26]], measures the quenching of the intrinsic fluorescence of tryptophan residues due to cap binding (Fig. S2). Knowledge of the equilibrium association constant Kas enables the calculation of the free-energy changes involved in the interaction between eIF4E and ligand, according to the standard equation ΔG° = − RTlnKas.
(§2) For human eIF4E1a and eIF4E1b and also for Xenopus eIF4E1a and its mutated forms, measurements were carried out using 0.1 μM protein in 50 mM Hepes/KOH (pH 7.2), 134.5 mM KCl, 0.5 mM EDTA and 1 mM DTT. For Xenopus eIF4E1b(ΔN27), the concentration was 0.2 μM and glycerol was added to the buffer to 10% (v/v) final concentration. […] Fluorescence of measured samples was excited at 280 nm (2.5 nm bandwidth) and detected at 337 nm or 330 nm (4 nm bandwidth), thus reducing the signal originated from the free cap analogues. Measurements were carried out on a LS-55 spectrofluorometer (Perkin Elmer Co.) using freshly prepared proteins, and the fluorescence intensities were corrected for sample dilution and the inner filter effect.
(§3) Equilibrium association constants (Kas) were determined by fitting the theoretical dependence of fluorescence intensity on the total concentration of the cap analogue to the experimental data points, according to the equation described previously (see Ref. [22] and Fig. S2c).
(§4) The final Kas was calculated as a weighted average of 2–6 independent titrations with the weights taken as the reciprocal of the numerical standard deviation squared. Numerical, nonlinear least-squares regression analysis was performed using Origin 6.0 (Microcal Software Inc.). Obtained association constants were used to determine the Gibbs free energy according to the standard equation ΔG° = − RTlnKas.

heIF4E1b [3] = target: T2, heIF4E1b (Homo sapiens, UniProt A6NMX2); assay: as above; details: equilibrium association constant; buffer without glycerol
T2 construct: made in house; host or cells: E. coli Rosetta2(DE3)
T2 sequence (A6NMX2 1-242): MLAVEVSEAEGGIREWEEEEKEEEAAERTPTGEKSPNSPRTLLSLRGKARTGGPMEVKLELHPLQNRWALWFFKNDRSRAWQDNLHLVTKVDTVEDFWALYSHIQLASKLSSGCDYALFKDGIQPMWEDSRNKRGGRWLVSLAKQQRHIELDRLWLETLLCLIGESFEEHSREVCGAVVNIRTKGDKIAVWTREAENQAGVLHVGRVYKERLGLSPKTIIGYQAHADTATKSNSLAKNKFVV
Text: as §1, §2, §3, §4

XeIF4E1a [4] = assay: as above; parameters: species or system Xenopus laevis; details: without glycerol
Text: as §1, §2, §3, §4

XeIF4E1a [5] = target: T3, XeIF4E1a (Xenopus laevis, UniProt P48597); assay: as above; details: equilibrium association constant; for Kas + glycerol XeIF4E1a: 10% glycerol; for Kas − glycerol XeIF4E1a: buffer without glycerol
T3 construct: made in house; host or cells: E. coli Rosetta2(DE3)
T3 sequence (P48597 whole entry): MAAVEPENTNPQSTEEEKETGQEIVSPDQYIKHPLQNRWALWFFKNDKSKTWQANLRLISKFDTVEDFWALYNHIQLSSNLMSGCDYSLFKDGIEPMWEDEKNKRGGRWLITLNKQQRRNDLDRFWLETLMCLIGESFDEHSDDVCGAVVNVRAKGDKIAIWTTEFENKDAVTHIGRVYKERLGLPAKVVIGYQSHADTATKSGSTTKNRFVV
Text: as §1, §2, §3, §4

heIF4E1b [6] = assay: as above; parameters: species or system human; details: without glycerol
Text: as §1, §2, §3, §4

[7] = target: T4, X4E1a6 (E101S/K102R/S195A/M82S/T206L/T207S) (Xenopus laevis, UniProt P48597, E101S/K102R/M82S/S195A/T206L/T207S); assay: fluorescence titration, XeIF4E1a mutant; type: binding
T4 construct: made in house; host or cells: E. coli Rosetta2(DE3)
T4 sequence (P48597 whole entry M82S/E101S/K102R/S195A/T206L/T207S): as the sequence (P48597 whole entry) above, with M82S, E101S, K102R, S195A, T206L, T207S counted along it
Text: (§5) We tested the effect on cap-binding activity of these positions in the fluorescence assay with six mutated recombinant versions of Xenopus eIF4E1a (Fig. S4). The amino acids were introduced in XeIF4E1a sequentially in the order: E101S/K102R/S195A/M82S/T206L/T207S (numbering of the XeIF4E1a sequence is shifted backward by 4 amino acids relative to XeIF4E1b). […] The biggest contribution to the weaker cap binding of XeIF4E1a, in each case about 20%, resulted from changing Glu101 to Ser and Thr206 to Leu coupled with Thr207 to Ser, with the remaining mutations having only minor effects. […] Glu101 is a solvent-accessible amino acid and is proximal to Trp98 in the S3-S4 loop. […] Attenuation of the cap-binding affinity of XeIF4E1a resulting from mutating Thr206 and Thr207 is consistent with our results mentioned above showing significant influence of C-terminal loop residues on binding phosphate and the second nucleotide.
(§6) For human eIF4E1a and eIF4E1b and also for Xenopus eIF4E1a and its mutated forms, measurements were carried out using 0.1 μM protein in 50 mM Hepes/KOH (pH 7.2), 134.5 mM KCl, 0.5 mM EDTA and 1 mM DTT. For Xenopus eIF4E1b(ΔN27), the concentration was 0.2 μM and glycerol was added to the buffer to 10% (v/v) final concentration. […] The gradually increasing concentration of cap analogue quenches protein fluorescence without shifting the spectrum maximum, while at high concentrations, the fluorescence signal of free cap analogue dominates over the fluorescence from other solution components including free eIF4E and eIF4E in complex with cap (Fig. S2a). Fluorescence of measured samples was excited at 280 nm (2.5 nm bandwidth) and detected at 337 nm or 330 nm (4 nm bandwidth), thus reducing the signal originated from the free cap analogues. Measurements were carried out on a LS-55 spectrofluorometer (Perkin Elmer Co.) using freshly prepared proteins, and the fluorescence intensities were corrected for sample dilution and the inner filter effect.
(§7) Equilibrium association constants (Kas) were determined by fitting the theoretical dependence of fluorescence intensity on the total concentration of the cap analogue to the experimental data points, according to the equation described previously (see Ref. [22] and Fig. S2c). […] Along with Kas and the concentration of the active protein [P0^act], other parameters such as fL and ∆f = fPact − fPL are also gained from the fit, where fL represents the fluorescence efficiency of free cap analogue and ∆f represents the difference between the fluorescence efficiencies of the apo-protein and the complex (Fig. S2c).
as §4

X4E1a2 (E101S/K102R) = target: T5, X4E1a2 (E101S/K102R) (Xenopus laevis, UniProt P48597, E101S/K102R); assay: fluorescence titration, XeIF4E1a mutant; type: binding; details: mutant (E101S/K102R) of XeIF4E1a
T5 construct: made in house; host or cells: E. coli Rosetta2(DE3)
T5 sequence (P48597 whole entry E101S/K102R): as the sequence (P48597 whole entry) above, with E101S, K102R counted along it
Text: as §5, §6, §7, §4

[8] = target: T6, X4E1a3 (E101S/K102R/S195A) (Xenopus laevis, UniProt P48597, E101S/K102R/S195A); assay: fluorescence titration, XeIF4E1a mutant; type: binding; details: mutant (E101S/K102R/S195A) of XeIF4E1a
T6 construct: made in house; host or cells: E. coli Rosetta2(DE3)
T6 sequence (P48597 whole entry E101S/K102R/S195A): as the sequence (P48597 whole entry) above, with E101S, K102R, S195A counted along it
Text: as §5, §6, §7, §4

[9] = target: T7, X4E1a4 (E101S/K102R/S195A/M82S) (Xenopus laevis, UniProt P48597, E101S/K102R/M82S/S195A); assay: fluorescence titration, XeIF4E1a mutant; type: binding; details: mutant (E101S/K102R/S195A/M82S) of XeIF4E1a
T7 construct: made in house; host or cells: E. coli Rosetta2(DE3)
T7 sequence (P48597 whole entry M82S/E101S/K102R/S195A): as the sequence (P48597 whole entry) above, with M82S, E101S, K102R, S195A counted along it
Text: as §5, §6, §7, §4

X4E1a1’ (K102R) = target: T8, X4E1a1’ (K102R) (Xenopus laevis, UniProt P48597, K102R); assay: fluorescence titration, XeIF4E1a mutant; type: binding; details: mutant (K102R) of XeIF4E1a
T8 construct: made in house; host or cells: E. coli Rosetta2(DE3)
T8 sequence (P48597 whole entry K102R): as the sequence (P48597 whole entry) above, with K102R counted along it
Text: as §5, §6, §7, §4

X4E1a1 (E101S) = target: T9, X4E1a1 (E101S) (Xenopus laevis, UniProt P48597, E101S); assay: fluorescence titration, XeIF4E1a mutant; type: binding; details: mutant (E101S) of XeIF4E1a
T9 construct: made in house; host or cells: E. coli Rosetta2(DE3)
T9 sequence (P48597 whole entry E101S): as the sequence (P48597 whole entry) above, with E101S counted along it
Text: as §5, §6, §7, §4

[10] = test system: lung, breast cancer and malignant mesothelioma cells; parameters: method as in PMID 23289910, PMID 24711125; details: with gemcitabine or pemetrexed; cited from earlier work
eIF4E1a [11] = target: eIF4E1a; parameters: method as in PMID 19351181; details: Ghosh et al.; cited from earlier work

Compound: Nc1nc2c(ncn2[C@@H]2O[C@H](COP(=O)(O)OP(=O)([O-])OP(=O)(O)OC[C@H]3O[C@@H]([n+]4cn(Cc5ccccc5)c5c(=O)[nH]c(N)nc54)[C@H](O)[C@@H]3O)[C@@H](O)[C@H]2O)c(=O)[nH]1 [bn^7GpppG]
cap-binding affinity to eIF4E1a versus methylated counterpart (eIF4E1a [1]): no increase in cap-binding affinity to eIF4E1a was observed | inhibitory potency and translational efficiency compared with m^7GpppG [2]: higher inhibitory potency and translational efficiency

Ratio Kas (X4E1a) to Kas (X4E1bΔN27) (XeIF4E1bΔN27): 2.45 | Kas + glycerol XeIF4E1bΔN27 (XeIF4E1bΔN27; equilibrium association constant): 2.43 ± 0.15 μM^− 1 | Kas − glycerol heIF4E1b (heIF4E1b [3]): 7.64 ± 0.71 μM^− 1 | Ratio Kas (h4E1a) to Kas (X4E1a) (XeIF4E1a [4]): 1.56 | Kas + glycerol XeIF4E1a (XeIF4E1a [5]): 5.97 ± 0.37 μM^− 1 | Kas − glycerol XeIF4E1a (XeIF4E1a [5]): 11.42 ± 0.50 μM^− 1 | Ratio Kas (h4E1a) to Kas (h4E1b) (heIF4E1b [6]): 2.32 | Kas + glycerol X4E1a6 ([7]; 10% glycerol, Fig. 5d): 3.68 ± 0.10 µM⁻¹ | Kas X4E1a6 ([7]; mutant (E101S/K102R/S195A/M82S/T206L/T207S) of XeIF4E1a): 6.82 ± 0.17 µM⁻¹ | Kas X4E1a2 (X4E1a2 (E101S/K102R)): 8.80 ± 0.16 µM⁻¹ | Kas X4E1a3 [8]: 8.53 ± 0.36 µM⁻¹ | Kas X4E1a4 [9]: 7.68 ± 0.40 µM⁻¹ | Kas X4E1a1’ (X4E1a1’ (K102R)): 11.09 ± 0.21 µM⁻¹ | Kas X4E1a1 (X4E1a1 (E101S)): 10.1 ± 1.2 µM⁻¹
Compound: Cn1c[n+]([C@@H]2O[C@H](COP(=O)(O)OP(=O)([O-])O)[C@@H](O)[C@H]2O)c2nc(N)[nH]c(=O)c21 [m^7GDP]
Kas − glycerol heIF4E1a (heIF4E1a): 17.76 ± 0.34 ^b μM^− 1 | pIC50 (in vitro translation): 5.12

Compound: Nc1nc2c(c(=O)[nH]1)[n+](Cc1ccccc1)cn2[C@@H]1O[C@H](COP(=O)(O)NCCc2c[nH]c3ccccc23)[C@@H](O)[C@H]1O [4Ei-1]
effect on malignant phenotypes and chemosensitization [10]: suppresses malignant phenotypes and chemosensitizes cells

Compound: Nc1nc2c(ncn2[C@@H]2O[C@H](COP(=O)(O)OP(=O)(O)OP(=O)([O-])OP(=O)(O)OC[C@H]3O[C@@H]([n+]4cn(Cc5ccccc5)c5c(=O)[nH]c(N)nc54)[C@H](O)[C@@H]3O)[C@@H](O)[C@H]2O)c(=O)[nH]1 [bn^7GppppG]
cap-binding affinity to eIF4E1a versus methylated counterpart (eIF4E1a [1]): no increase in cap-binding affinity to eIF4E1a was observed

Kas − glycerol heIF4E1b (heIF4E1b [3]): 0.628 ± 0.016 μM^− 1 | Kas + glycerol XeIF4E1a (XeIF4E1a [5]): 0.256 ± 0.018 μM^− 1 | Kas − glycerol XeIF4E1a (XeIF4E1a [5]): 0.567 ± 0.012 μM^− 1
Compound: Cn1c[n+]([C@@H]2O[C@H](COP(=O)(O)O)[C@@H](O)[C@H]2O)c2nc(N)[nH]c(=O)c21 [m^7GMP]
pKd (eIF4E1a [11]): 5.12 | pIC50 (in vitro translation): 3.42

Compound: Nc1nc2c(c(=O)[nH]1)[n+](Cc1ccccc1)cn2[C@@H]1O[C@H](COP(=O)([O-])O)[C@@H](O)[C@H]1O [bn^7GMP]
pKd (eIF4E1a [11]): 6.10 | fold higher binding to eIF4E1a than m^7GMP (eIF4E1a [11]): 10 fold | pIC50 (in vitro translation): 3.95

Compound: COC1C(COP(=O)([O-])OP(=O)(O)OP(=O)(O)OCC2OC(n3cnc4c(=O)[nH]c(N)nc43)C(O)C2O)OC(n2c[n+](C)c3c(=O)[nH]c(N)nc32)C1O (centres unmarked) [m^7,3′OGpppG]
inhibitory potency and translational efficiency compared with m^7GpppG [2]: higher inhibitory potency and translational efficiency
